# Patent US7655392B2, “Quenching methods for red blood cell inactivation process” (priority 2004, dated 2010)
# Read-outs that look alike come from different tables or passages of the source.
# How the values were obtained:
# Serratia marcescens = assay type: cell-based; conditions: no PIC-1, 20 mM glutathione
# red blood cells = assay type: cell-based; conditions: unit 6: 0.2 mM GSH+2 eq base, no PIC-1
# Experimental: In another assay, the rabbit polyclonal sera may be reacted with treated red blood cells. After washing off unbound antibody, a FITC labeled goat anti-rabbit Fab′2 fragment (anti H+L chains, Caltag) is added. The binding of FITC label to the red blood cells correlates with the amount of acridine bound to the red blood cell surface, and is assessed by FACScan™ analysis (Becton, Dickinson and Co., NJ). The relative modification of the red blood cells is determined from the FACScan™ mean fluorescence value.
# A 20 mL sample of leukoreduced whole blood (Blood Source, Sacramento, Calif.) was centrifuged at 4,100×g for 5 minutes at room temperature in each of four 50 mL centrifuge tubes. The supernatant was removed from each tube to provide red cell concentrate (RCC). […] For each washed RCC, cells were resuspended in 5 mL of the solution used for washing. This is now referred to as the RBC test sample. […] These samples were incubated for 20 hours at room temperature. After incubation, the RBC were washed in BBS (Blood Bank Saline, 0.9% saline, unbuffered, Fisher Scientific) and were diluted to a final hematocrit of 4%. A 25 μL aliquot of each was mixed with 15 μL of rabbit polyclonal anti-acridine sera diluted 1:100 in BBS and the mixture was incubated at 37° C. for 30 minutes. The cells were subsequently washed with 1.5 mL BBS. After washing was complete, the cells were mixed with 50 μL of FITC labeled goat anti-rabbit Fab′2 fragment (1:64 dilution in BBS) and incubated at 37° C. for 30 minutes. […] Note that the quenching improves as glutathione is neutralized with increasing amounts of sodium hydroxide.
# The FACScan analysis of the binding of rabbit anti-acridine sera to treated red cells was used to assess a variety of quenching conditions. […] The tables represent data from two different experiments, each with samples treated under standard conditions or with 20 mM neutralized glutathione. […] The data within an experiment provides the relative efficacy of the various treatments. Because the assay may depend on the lot of red blood cells used, the absolute values of mean fluorescence may vary from one study to the next, such that relative values should only be compared within a given experiment. […] Neutralized glutathione at 20 mM results in close to background levels.
# An untreated control sample as well as a standard sample (co-addition of 2 mM acidic glutathione with 0.2 mM PIC-1) were also assessed.
# Full units of red cell concentrates (Interstate Blood Bank, Inc., Memphis, Tenn.) were leukoreduced. A volume of 200 mL of this RCC (80% hematocrit) was mixed with 94 mL of Erythrosol or 100 mL of Adsol (Baxter Healthcare Corp., Deerfield, Ill.) as control (unit 1). A volume of 20 mL 8% dextrose was used to dissolve PIC-1 (mg) and acid glutathione (mg) and added to one unit to provide 0.2 mM PIC-1 and 2 mM glutathione (unit 2). […] For the glutathione, 1.2 mL of 10 N NaOH was added (2 equivalents). The PIC-1 was mixed with the unit, followed 1 minute later (unit 3) or 5 minutes later (unit 4) by glutathione. For unit 5, neutralized glutathione was mixed first, followed 10 minutes later by the PIC-1. […] All units were mixed by grasping the ends of the blood bag and mixing in a FIG. 8 motion 30 times. These were then incubated at room temperature for 20 hours total. A compound adsorption device (CAD), comprising a polymeric resin contained within a mesh pouch, was used for all but the control sample. This device is intended to remove residual PIC-1, PIC-1 breakdown products, and glutathione from the samples. Samples were incubated for 8 hours, then transferred to a second blood bag containing the CAD and incubated for an additional 12 hours. Following the room temperature incubation, samples were transferred to a refrigerator (4° C.) and stored up to 43 days.
smiles,measurement,setting,value
"N[C@@H](CCC(=O)N[C@@H](CS)C(=O)NCC(=O)O)C(=O)O [glutathione, γ-L-glutamyl-L-cysteinyl-glycine]",Log S. marcescens reduction,Serratia marcescens; 0 eq base,0.02 Log
same,Log S. marcescens titer,Serratia marcescens; 0 eq base,7.0 Log
same,Log S. marcescens reduction,Serratia marcescens; 2 eq base,0.31 Log
same,Log S. marcescens titer,Serratia marcescens; 2 eq base,7.4 Log
same,mean fluorescence,red blood cells; 16C day 0.8,2.16
same,mean fluorescence,red blood cells; 16C day 2,1.78
same,mean fluorescence,red blood cells; 16C day 7,1.58
same,mean fluorescence,red blood cells; 16C day 14,1.48
same,mean fluorescence,red blood cells; 16C day 22,1.58
same,mean fluorescence,red blood cells; 16C day 28,2.02
same,mean fluorescence,red blood cells; 16C day 35,1.62
same,mean fluorescence,red blood cells; 16C day 43,1.8
